In general, MIC refers to the smallest concentration in the dilution series that meets the test's criterion for growth inhibition. The solubility is the concentration that dissolves in the medium under given conditions. High values mean a readily soluble substance, low ones a poorly soluble substance.

The values below come from patent US8425968B2, “Beverage preservative system containing pimaricin-cyclodextrin complex” (PepsiCo., Inc., priority 2009, dated 2013).

In data set [1] the test system is bio-indicator mold. As to conditions: reported by the manufacturer of DMDC; cited from earlier work.
The subject of data set [2] is Aspergillus (Pepsi Isolate). The data set can be described thus: 16 week mold spore challenge MIC in beverage. The conditions noted are these: pH 3.4, read-out: 16 week incubation MIC (ppm). It counts as cell-based, Aspergillus niger. The source says: (§1) A 2% fruit juice based non-carbonated beverage of pH 3.4 and about 12 Brix was formed by combining the following ingredients.
(§2) The preparation of beverage was divided into two aliquots.
(§3) Each of 24 such preparations was then divided equally across 8 separate tubes making for 192 samples. […] The tubes were sealed in a manner that prohibits moisture evaporation.
(§4) The mold spores employed were obtained from the following organisms. Aspgergillus niger isolate of Pepsi; ATCC strain 90900 (Talaromyces spectabilis), ATCC strain 48441 (Pencillium galbrum), ATCC 24088 (Byssochlamys fulva), ATCC 96468 (Neosartorva fischeri) ATCC strain 96463 (Talaromyces flavus) and ATCC strain ATCC 10512 (Talaromyces flavus var. flavus). Each spore type was present at 20 spores per milliliter.

Data set [3] concerns Penicillium glabrum ATCC 48441. Kind of data set: 16 week mold spore challenge MIC in beverage. Type of data set: cell-based. The conditions noted are these: ATCC48441, pH 3.4, read-out: 16 week incubation MIC (ppm).
Description: as §1, §2, §3, §4

For data set [4], the system named is Talaromyces spectabilis ATCC 90900. Kind of data set: 16 week mold spore challenge MIC in beverage. It counts as cell-based. As to conditions: Paecilomyces variotii, ATCC90900, pH 3.4; read-out: 16 week incubation MIC (ppm).
Description: as §1, §2, §3, §4

The subject of data set [5] is Byssochlamys fulva ATCC 24088. Kind of data set: 16 week mold spore challenge MIC in beverage. Type of data set: cell-based. The conditions noted are these: Paecilomyces fulvus, ATCC 10099 / ATCC 24088, pH 3.4; read-out: 16 week incubation MIC (ppm).
Description: as §2, §3, §4
(§5) The second aliquot of beverage is identical to the 1st aliquot except for the presence of cyclodextrin-pimaricin complex. […] Each of 36 such preparations was then divided equally across 8 separate tubes making for 288 samples. […] The tubes were sealed in a manner that prohibits moisture evaporation.
(§6) The mold spores employed were obtained from the following organisms Paecilomyces puntoni (Pepsi isolate D3), ATCC 36614 (Byssochlamys nieva) ATCC 24088 (Byssochlamys fulva), ATCC 96468 (Neosartorya fischeri) ATCC strain 96463 (Talaromyces flavus) and ATCC strain ATCC 10512 (Talaromyces flavus var. flavus). Each spore type was present initially at 20 spores per milliliter of product. Spores for Byssochlamys nieva were developed at both 25° C. on Potato Dextrose and 30° C. on Malt Extract in order to ensure some variation in the ratio of asci (ascospores) to conidiospores. […]
(§7) One sample remained un-inoculated and served as a negative control. […] These samples served as the positive controls in this test. […]
(§8) After inoculation with spores from various mold, samples were incubated at 25-27° C. for a period of 16 weeks before.
(§9) As outlined previously, two separate aliquots of beverage were formulated, one containing Pimaricin in complex with g-cyclodextrin and one without. Both aliquots contained 30 ppm Cinnamic acid.

Data set [6] concerns Neosartorya fischeri ATCC 96468. The data set can be described thus: 16 week mold spore challenge MIC in beverage. Type of data set: cell-based. As to conditions: Aspergillus fischeri, ATCC96468, pH 3.4; read-out: 16 week incubation MIC (ppm).
Description: as §2, §3, §4, §5, §6, §7, §8, §9

Data set [7] deals with Talaromyces flavus ATCC 96463. Kind of data set: 16 week mold spore challenge MIC in beverage. It counts as cell-based. The conditions noted are these: ATCC96463, pH 3.4, read-out: 16 week incubation MIC (ppm).
Description: as §2, §3, §4, §5, §6, §7, §8, §9

Data set [8] relates to Talaromyces flavus var. flavus ATCC 10512. Kind of data set: 16 week mold spore challenge MIC in beverage. Type of data set: cell-based. As to conditions: ATCC10512, pH 3.4, read-out: 16 week incubation MIC (ppm).
Description: as §2, §3, §4, §5, §6, §7, §8, §9

The nature of a further data set: physchem. Type of data set: physicochemical.
The test system of data set [9] is bio-indicator mold. The data set can be described thus: Preservation of beverage for 16 weeks against the array of bio-indicator / spoilage organisms. Type of data set: cell-based.
Description: As used herein, the terms “preserve,” “preservative,” and “preservation” refer to a food or beverage product protected against or a composition able to stop or completely prevent spoilage of a product that is the result of the growth of spoilage microorganisms for a period of at least 16 weeks. This period is in keeping with the time required to transport a beverage product from location of manufacture, through distribution channels, into the hand of the consumer. Absence of spoilage is noted by absence any evidence of growth of spoilage organisms (turbidity, viable count, direct microscopic count or other standard methods of enumeration) and by the absence of any discernable change in the product attributes that could be routinely attributed to metabolism of spoilage organisms.
as §3, §5
An apple juice based beverage was prepared to contain 30 ppm EDTA (0.003%) as shown below. The beverage was divided into two aliquots. […]

For data set [10] the following is noted: 25° C., pH approximately 6.4; cited from earlier work.
The conditions of data set [11]: purportedly; cited from earlier work.

Converted amounts (≈) assume the structure as drawn.

Consider `COC(=O)OC(=O)OC` [DMDC, Dimethyl dicarbonate], for which the “concentration required to stabilize beverage for 16 weeks against vegetative yeast, mold and bacteria” value with bio-indicator mold [1] is on record as “at least 250 mg/liter”.
In the case of `CC1O[C@@H](O[C@H]2/C=C/C=C/C=C/C=C/C[C@@H](C)OC(=O)/C=C/[C@H]3O[C@@H]3C[C@H](O)C[C@]3(O)C[C@H](O)[C@@H](C(=O)O)[C@H](C2)O3)C(O)C(N)[C@@H]1O` (stereo partly drawn) [Pimaricin], the minimal inhibitory concentration (MIC) in data set [2] was 18.4 µg/mL (≈ 27.6 µM); in data set [3], 5.7 µg/mL (≈ 8.56 µM); in data set [4] it was 10.3 µg/mL (≈ 15.5 µM); in [5], 16.9 µg/mL (≈ 25.4 µM); in data set [6], above 20 µg/mL; in data set [7] it was above 20 µg/mL. Besides, the minimum inhibitory concentration (MIC) in [8] was above 20 µg/mL. Further, the concentration in solution in the data set “physchem” (4 °C, pH 3.4, aqueous buffer, thermodynamic from solid) (solubility) was 10 µg/mL (≈ 15 µM). The compound further displayed a solubility at 24 h in “physchem” (25 °C, pH 3.4, aqueous buffer, thermodynamic from solid) of 20 µg/mL (≈ 30 µM). In addition, the “solubility limit in high acid beverage” value in “physchem” (pH 3.4) is given as around 10 ppm. Also, in the data set with bio-indicator mold [9] (20.0 ppm un-complexed Pimaricin, apple juice beverage pH 3.4), the “mold able to grow at highest concentration in solution” value was above 50%. Further, the “minimum initial stand alone concentration needed to preserve product for 16 weeks” value in the data set on bio-indicator mold [9] (stand alone) is 400 mg pimaricin per liter. For the same compound, the “solubility in pure water” value in [10] is 52 µg/mL (≈ 78.1 µM). For the same compound, in data set [11], the “pKa of carboxylic acid group” value is around 6.5.
